{"source": "patent US11752133B2", "about": "“Use of bromophenol-pyrazoline compounds in the treatment of porcine coronavirus diseases” (priority 2020, dated 2023)", "key": {"[1]": {"system": "porcine epidemic diarrhea virus", "assay": "Clinical trial in diseased pigs with epidemic diarrhea (PEDV infection)", "type": "in vivo, pig", "conditions": "for Diarrhea Scoring Index: individual pigs, 0 formed manure, 1 thick not formed, 2 manure and water separation, 3 watery manure; for Effective rate / Number of deaths / Mortality rate: diseased pigs within 10 days of age; for Effective rate: 72 h, based on diarrhea scoring index; for Number of deaths: 72 h observation, treatment twice a day; for Mortality rate: piglet deaths at end of 72 h test", "protocol": "Through the PCR detection of diseased pig tissues at Zhucheng Pig Farm in November 2020, the type of viral infection was determined.\nDiseased pigs with epidemic diarrhea within 10 days of age were selected and randomly divided into 4 groups, i.e. untreated group, traditional Chinese medicine treatment group, compound 4 treatment group and lgY antibody treatment group, respectively. The traditional Chinese medicine treatment group was drenched with a compound decoction consisting of dandelion, Chinese violet, coptis, isatis root, etc., twice a day for 3 consecutive days. Compound 4 was taken at a dose of 25 mg/pig after being dissolved in a dextrose solution, twice a day. The lgY antibody treatment group was fed with chicken egg antibodies (lgY), twice a day. The untreated group, the traditional Chinese medicine treatment group and the lgY antibody treatment group were respectively drenched with the same dose of the glucose solution as the compound 4 treatment group. The pigs were breast-fed during treatment.\nDuring the clinical treatment of the diseased pigs with epidemic diarrhea, the diarrhea indexes of the diseased pigs in the untreated group (6 pigs), the compound 4 treatment group (8 pigs) and the lgY antibody treatment group (6 pigs) were scored through sampling."}, "[2]": {"system": "porcine epidemic diarrhea virus (PEDV)", "assay": "Inhibition of PEDV replication in infected Vero E6 cells (vRNA in supernatant by qRT-PCR)", "type": "cell-based", "conditions": "10 μM and 2 μM, MOI 0.05, 24 h, FIG. 1", "protocol": "This Example evaluated whether bromophenol-pyrazoline compounds can inhibit replication of porcine coronavirus in Vero E6 cells infected with clinically isolated strains of porcine epidemic diarrhea virus (PEDV).\n(§1) Specific operation: pre-seeded Vero E6 cells (5×10^4 cells/well) were respectively pretreated for 1 h with different concentrations of bromophenol-pyrazoline compounds to be tested (2 μM and 10 μM), and then infected with porcine coronavirus (PEDV; MOI: 0.05) for 2 h. Then, a virus-compound mixture was removed, and the cells were further cultured with a fresh medium containing the bromophenol-pyrazoline compound. After 24 hours, a cell supernatant was collected, and vRNA in the supernatant was analyzed by qRT-PCR. The treatment without a bromophenol-pyrazoline compound was used as a control."}, "[3]": {"system": "porcine transmissible gastroenteritis virus (TGEV)", "assay": "Inhibition of TGEV replication in infected Vero E6 cells (vRNA in supernatant by qRT-PCR)", "type": "cell-based", "conditions": "10 μM and 2 μM, MOI 0.05, 24 h, FIG. 2", "protocol": "This Example evaluated whether bromophenol-pyrazoline compounds can inhibit replication of porcine coronavirus in Vero E6 cells infected with clinically isolated strains of porcine transmissible gastroenteritis virus (TGEV).\nas §1, with “(TGEV;” for “(PEDV;”"}}, "note": "Values joined by “and” are separate entries in the source; they are usually repeats but may differ in a detail not shown here. Equal entries are not always repeated.", "data": [{"molecule": "CC(C)(C)c1ccc(Oc2ccc(C3=NN(C(N)=S)C(c4ccc(O)c(O)c4)C3)cc2)cc1", "note": "(centres unmarked) [Compound 4]", "values": [{"measurement": "alleviation of diarrhea", "setting": "[1]; 8 scored diseased pigs, 24 h after oral administration", "value": "significantly alleviated diarrhea"}, {"measurement": "curative ratio", "setting": "[1]; 8 scored diseased pigs, 72 h after oral administration", "value": 100, "unit": "%"}, {"measurement": "Diarrhea Scoring Index", "setting": "[1]; 12 h after administration", "value": "3 (7×) and 2"}, {"measurement": "Diarrhea Scoring Index", "setting": "[1]; 24 h after administration", "value": "2 (7×) and 1"}, {"measurement": "Diarrhea Scoring Index", "setting": "[1]; 48 h after administration", "value": "0 (5×) and 1 (2×) and 2"}, {"measurement": "Diarrhea Scoring Index", "setting": "[1]; 72 h after administration", "value": 0}, {"measurement": "Effective rate", "setting": "[1]", "value": 100, "unit": "%"}, {"measurement": "Effective rate", "setting": "[1]; listed as compound 4", "value": 100, "unit": "%"}, {"measurement": "Number of deaths", "setting": "[1]", "value": 0}, {"measurement": "Number of deaths", "setting": "[1]; listed as compound 4", "value": "no pig died"}, {"measurement": "Mortality rate", "setting": "[1]", "value": 0, "unit": "%"}, {"measurement": "Mortality rate", "setting": "[1]; listed as compound 4", "value": 0, "unit": "%"}, {"measurement": "inhibitory activity against replication of PEDV (viral RNA)", "setting": "[2]", "value": "strongest inhibitory activity"}, {"measurement": "inhibitory activity against replication of TGEV (viral RNA)", "setting": "[3]", "value": "strongest inhibitory activity"}]}]}
